Measurements from BindingDB's records for doi:10.1111/j.1471-4159.1979.tb04553.x (1979).

These compounds were tested against Gamma-aminobutyric acid type B receptor subunit 1 (UniProt Q9Z0U4).
Chain of Gamma-aminobutyric acid type B receptor subunit 1 (Q9Z0U4 whole entry): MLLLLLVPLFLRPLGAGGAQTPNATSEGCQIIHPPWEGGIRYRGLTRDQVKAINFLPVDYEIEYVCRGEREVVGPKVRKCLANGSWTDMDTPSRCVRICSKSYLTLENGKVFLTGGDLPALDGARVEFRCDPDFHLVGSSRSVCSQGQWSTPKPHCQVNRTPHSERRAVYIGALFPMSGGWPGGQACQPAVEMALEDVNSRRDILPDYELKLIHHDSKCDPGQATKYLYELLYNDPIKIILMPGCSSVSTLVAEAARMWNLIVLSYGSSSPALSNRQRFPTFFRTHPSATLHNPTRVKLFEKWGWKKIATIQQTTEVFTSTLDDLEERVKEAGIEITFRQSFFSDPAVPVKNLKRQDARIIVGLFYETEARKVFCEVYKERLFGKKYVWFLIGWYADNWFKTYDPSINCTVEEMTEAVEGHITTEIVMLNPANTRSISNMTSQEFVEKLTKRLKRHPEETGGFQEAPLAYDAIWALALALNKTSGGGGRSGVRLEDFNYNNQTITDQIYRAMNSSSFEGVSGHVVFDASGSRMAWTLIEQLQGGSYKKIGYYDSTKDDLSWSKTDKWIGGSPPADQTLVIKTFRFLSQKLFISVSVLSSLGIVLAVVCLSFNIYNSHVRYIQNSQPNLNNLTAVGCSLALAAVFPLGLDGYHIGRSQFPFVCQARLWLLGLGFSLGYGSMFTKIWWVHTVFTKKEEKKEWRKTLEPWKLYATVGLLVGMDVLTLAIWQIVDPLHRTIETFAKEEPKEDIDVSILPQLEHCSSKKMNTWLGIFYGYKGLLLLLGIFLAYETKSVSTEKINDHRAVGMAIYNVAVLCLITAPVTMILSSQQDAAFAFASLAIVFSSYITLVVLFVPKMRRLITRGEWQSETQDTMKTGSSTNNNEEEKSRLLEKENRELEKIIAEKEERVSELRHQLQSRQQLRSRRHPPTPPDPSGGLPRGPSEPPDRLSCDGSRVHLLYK

Row | SMILES | Ki
1 | O=C(O)[C@@H]1CCCNC1 (racemic) [Nipecotic] | > 10000 nM
2 | NCc1cc(=O)[nH]o1 | 10 nM
3 | CC(C)(O)C1C2OC(=O)C1C1(O)CC3OC34C(=O)OC2C14C (stereo not given) [NSC_5311359] | > 10000 nM
4 | c1c[nH]cn1 | 229 nM
5 | N[C@@H]1C(=O)N2C(C(=O)O)=C(CSc3cnn[nH]3)CS[C@H]12 [CAS_37539-03-0] | 51 nM
